The text below walks through data of ChEMBL document CHEMBL3045140, “Synthesis, docking studies and antioxidant activity of some chalcone and aurone derivatives” (Med Chem Res, 2013).

As usually defined, the IC50 is the point on the concentration scale where inhibition reaches its midpoint.

What all share (type): functional
The nature of test [1]: Antioxidant activity assessed as H2O2 scavenging activity after 10 min by spectrophotometeric analysis.
Test [2] can be described thus: Antioxidant activity assessed as reduction of Fe3+ to Fe2+ after 20 min by spectrophotometeric analysis.
A short description of test [3]: Antioxidant activity assessed as iron chelating activity after 10 min by spectrophotometeric analysis.
The test system of test [4] is Radical scavenging activity. Briefly: Antioxidant activity assessed as DPPH free radical scavenging activity after 30 min by spectrophotometeric analysis.

Converted amounts (≈) assume the structure as drawn.

In the case of `CN(C)c1ccc(/C=C2\Oc3ccc(O)cc3C2=O)cc1`, the Activity result in test [1] and in test [4] was “Dose-dependent effect” throughout. Also, the IC50 in test [1] is 174.07 µg/mL (≈ 619 µM); in test [2], 64.16 µg/mL (≈ 228 µM); in test [3], 149.98 µg/mL (≈ 533 µM); in test [4], 243 µg/mL (≈ 864 µM).

With `COc1ccc(/C=C2\Oc3ccc(O)cc3C2=O)cc1OC` [5-HYDROXY-3',4'-DIMETHOXY AURONE], the Activity entry in test [1] and in test [4] was “Dose-dependent effect” in each case. Moreover, the IC50 in test [1] was found to be 206.57 µg/mL (≈ 693 µM); in test [2], 151.43 µg/mL (≈ 508 µM); in test [3] it was 185.05 µg/mL (≈ 620 µM); in test [4] it was 222.19 µg/mL (≈ 745 µM).

As to `CN(C)c1ccc(/C=C/C(=O)c2cc(O)ccc2O)cc1`, the Activity result in test [1] and in test [4] was “Dose-dependent effect” in each case. Moreover, the IC50 in test [1] is 153.85 µg/mL (≈ 543 µM); in test [2], 47.79 µg/mL (≈ 169 µM); in test [3] it was 90.81 µg/mL (≈ 321 µM); in test [4], 24.32 µg/mL (≈ 85.8 µM).

Turning to `CN(C)c1ccc(/C=C2\Oc3cc(O)ccc3C2=O)cc1`, the Activity entry in test [1] and in test [4] was “Dose-dependent effect” throughout. Further, the IC50 in test [1] turned out to be 193.91 µg/mL (≈ 689 µM); in test [2], 70.1 µg/mL (≈ 249 µM); in test [3], 179.33 µg/mL (≈ 637 µM); in test [4], 109.92 µg/mL (≈ 391 µM).

Regarding `COc1ccc(/C=C2\Oc3cc(O)ccc3C2=O)cc1OC`, the Activity result in test [1] and in test [4] was “Dose-dependent effect” in each case. Besides, the concentration for half-maximal inhibition (IC50) stood at 248.16 µg/mL (≈ 832 µM) in test [1], 168.23 µg/mL (≈ 564 µM) in test [2], 213.83 µg/mL (≈ 717 µM) in test [3] and 173.29 µg/mL (≈ 581 µM) in test [4].

As for `COc1ccc(/C=C/C(=O)c2ccc(O)cc2O)cc1OC`, the Activity entry in test [1] and in test [4] was “Dose-dependent effect” throughout. For the same molecule, the concentration for half-maximal inhibition (IC50) in test [1] was 70.1 µg/mL (≈ 233 µM); in test [2] it was 134.45 µg/mL (≈ 448 µM); in test [3], 166.73 µg/mL (≈ 555 µM); in test [4] it was 35.2 µg/mL (≈ 117 µM).

For the molecule `O=C1/C(=C/c2ccc(Cl)cc2)Oc2cc(O)ccc21` [6-HYDROXY-4'-CHLORO AURONE], the Activity entry in test [1] and in test [4] was “Dose-dependent effect” throughout. The IC50 in test [1] came out at 178.13 µg/mL (≈ 653 µM); in test [2] it was 188.31 µg/mL (≈ 691 µM); in test [3], 179.18 µg/mL (≈ 657 µM); in test [4] it was 266.12 µg/mL (≈ 976 µM).

Regarding `O=C(/C=C/c1ccc(Cl)cc1)c1ccc(O)cc1O`, the Activity result in test [1] and in test [4] was “Dose-dependent effect” each time. Moreover, the IC50 in test [1] stood at 129.02 µg/mL (≈ 470 µM); in test [2] it was 155.87 µg/mL (≈ 567 µM); in test [3], 159.97 µg/mL (≈ 582 µM); in test [4], 264.95 µg/mL (≈ 964 µM).

Turning to `COc1ccc(/C=C/C(=O)c2cc(O)ccc2O)cc1OC`, the Activity entry in test [1] and in test [4] was “Dose-dependent effect” each time. In addition, the concentration for half-maximal inhibition (IC50) was 89.59 µg/mL (≈ 298 µM) in test [1], 111.79 µg/mL (≈ 372 µM) in test [2], 159.22 µg/mL (≈ 530 µM) in test [3] and 132.22 µg/mL (≈ 440 µM) in test [4].

For the molecule `CN(C)c1ccc(/C=C/C(=O)c2ccc(O)cc2O)cc1`, the Activity entry in test [1] and in test [4] was “Dose-dependent effect” in each case. In addition, the IC50 in test [1] worked out at 135.88 µg/mL (≈ 480 µM); in test [2], 53.6 µg/mL (≈ 189 µM); in test [3], 140.16 µg/mL (≈ 495 µM); in test [4], 65.8 µg/mL (≈ 232 µM).

As to `O=C1O[C@H]([C@@H](O)CO)C(O)=C1O` [ASCORBIC ACID], the IC50 in test [1] came out at 445.92 µg/mL (≈ 2530 µM); in test [2], 53.24 µg/mL (≈ 302 µM); in test [3], 126.12 µg/mL (≈ 716 µM); in test [4], 98.77 µg/mL (≈ 561 µM).
